The values below come from patent US8932597B2 (priority 2008, dated 2015).

For test [1], the system named is anti-M2 human monoclonal antibody Z3G1. It is filed as binding.
The test system of another test is HuM2e antibody 23K12. It is filed as binding, human.

“588 (SLLTEVETPIRNEWGCRCNCSSD; epitope peptide) [compound 588]”: the “Signal (peptides that bind to Z3G1)” value in test [1] turned out to be 2505. The “Signal (peptides that bind to 23K21 and 8I10)” value in the test on HuM2e antibody 23K12 was 848.
Consider “592 (MSLCTEVGCSLLTEC; epitope peptide) [compound 592]”, for which the “Signal (peptides that bind to Z3G1)” value in test [1] was determined as 1971. In the test with HuM2e antibody 23K12, the “Signal (peptides that bind to 23K21 and 8I10)” value is 840.
With “593 (SLLTEVEIPIRNEWGCRCNDSSD; epitope peptide) [compound 593]”, the “Signal (peptides that show specific binding to Z3G1)” value in test [1] is on record as 2365. In addition, in the test with HuM2e antibody 23K12, the “Signal (peptides that bind to 23K21 and 8I10)” value turned out to be 839.
The like results for “594 (SLLTEVQTPIRNEWGCRCNDSSD; epitope peptide) [compound 594]” were, in that order, 2289 and 838.
In the case of “595 (SLLTEVETPIRNEWGWRCNDSSD; epitope peptide) [compound 595]”, in test [1], the “Signal (peptides that show specific binding to Z3G1)” value was determined as 2439. Moreover, the “Signal (peptides that bind to 23K21 and 8I10)” value in the test on HuM2e antibody 23K12 was determined as 838.
Regarding “596 (SLLTEVETPIRNEWFCRCNDSSD; epitope peptide) [compound 596]”, in test [1], the “Signal (peptides that show specific binding to Z3G1)” value was found to be 2493. Also, the “Signal (peptides that bind to 23K21 and 8I10)” value in the test on HuM2e antibody 23K12 turned out to be 837.
For “597 (SLLTEVETGIRNEWGCRCNDSSD; epitope peptide) [compound 597]”, in that order: 2366 and 835.
For the substance “598 (SLLTEVETPIRNEWGCRKNDSSD; epitope peptide) [compound 598]”, the “Signal (peptides that show specific binding to Z3G1)” value in test [1] came to 2435. Moreover, the “Signal (peptides that bind to 23K21 and 8I10)” value with HuM2e antibody 23K12 is 835.
For the substance “599 (SLLTEVERPIRNEWGCRCNDSSD; epitope peptide) [compound 599]”, the “Signal (peptides that show specific binding to Z3G1)” value in test [1] is 2131. In addition, in the test with HuM2e antibody 23K12, the “Signal (peptides that bind to 23K21 and 8I10)” value was 834.
Take “600 (SLLTEVETPIRNEWGLRCNDSSD; epitope peptide) [compound 600]”: the “Signal (peptides that show specific binding to Z3G1)” value in test [1] worked out at 2389. Further, the “Signal (peptides that bind to 23K21 and 8I10)” value in the test with HuM2e antibody 23K12 was found to be 831.
In the case of “602 (SLLTEVETEIRNEWGCRCNDSSD; epitope peptide) [compound 602]”, the “Signal (peptides that show specific binding to Z3G1)” value in test [1] stood at 2368. The “Signal (peptides that bind to 23K21 and 8I10)” value in the test on HuM2e antibody 23K12 is reported as 828.
“605 (SLLTEVETPIRNMWGCRCNDSSD; epitope peptide) [compound 605]”: in test [1], the “Signal (peptides that show specific binding to Z3G1)” value was determined as 2455. For the same substance, the “Signal (peptides that bind to 23K21 and 8I10)” value in the test with HuM2e antibody 23K12 worked out at 820.
For the substance “606 (SLLTEVETQIRNEWGCRCNDSSD; epitope peptide) [compound 606]”, the “Signal (peptides that show specific binding to Z3G1)” value in test [1] came to 2189. Besides, in the test on HuM2e antibody 23K12, the “Signal (peptides that bind to 23K21 and 8I10)” value is 819.
Consider “607 (SLLTEVESPIRNEWGCRCNDSSD; epitope peptide) [compound 607]”, for which the “Signal (peptides that show specific binding to Z3G1)” value in test [1] is given as 2156. Further, the “Signal (peptides that bind to 23K21 and 8I10)” value in the test on HuM2e antibody 23K12 is 817.
Consider “608 (SLLTEIETPIRNEWGCRCNDSSD; epitope peptide) [compound 608]”, for which the “Signal (peptides that show specific binding to Z3G1)” value in test [1] was determined as 2016. In addition, in the test with HuM2e antibody 23K12, the “Signal (peptides that bind to 23K21 and 8I10)” value was 816.
With “609 (SLLTEVETHIRNEWGCRCNDSSD; epitope peptide) [compound 609]”, the “Signal (peptides that show specific binding to Z3G1)” value in test [1] amounted to 2288. Moreover, the “Signal (peptides that bind to 23K21 and 8I10)” value in the test with HuM2e antibody 23K12 is 816.
For the substance “610 (SLLTEVETDIRNEWGCRCNDSSD; epitope peptide) [compound 610]”, the “Signal (peptides that show specific binding to Z3G1)” value in test [1] came to 2392. The “Signal (peptides that bind to 23K21 and 8I10)” value in the test on HuM2e antibody 23K12 turned out to be 813.
Turning to “611 (SLLTEVETRIRNEWGCRCNDSSD; epitope peptide) [compound 611]”, the “Signal (peptides that show specific binding to Z3G1)” value in test [1] was found to be 2159. Further, the “Signal (peptides that bind to 23K21 and 8I10)” value in the test on HuM2e antibody 23K12 is given as 813.
Consider “612 (SLLTEVETPIRNEWGCRCIDSSD; epitope peptide) [compound 612]”, for which the “Signal (peptides that bind to Z3G1)” value in test [1] is on record as 2450. Also, in the test with HuM2e antibody 23K12, the “Signal (peptides that bind to 23K21 and 8I10)” value is recorded as 812.
With “613 (SLLTEVETPIRNEWGCRCNHSSD; epitope peptide) [compound 613]”, the “Signal (peptides that bind to Z3G1)” value in test [1] is 2439. Also, the “Signal (peptides that bind to 23K21 and 8I10)” value in the test on HuM2e antibody 23K12 amounted to 812.
As for “614 (SLLTEVETVIRNEWGCRCNDSSD; epitope peptide) [compound 614]”, the “Signal (peptides that show specific binding to Z3G1)” value in test [1] is listed as 2264. The “Signal (peptides that bind to 23K21 and 8I10)” value in the test with HuM2e antibody 23K12 came to 810.
On to “615 (SLLTEVETPIRNEWGCDCNDSSD; epitope peptide) [compound 615]”, for which the “Signal (peptides that show specific binding to Z3G1)” value in test [1] turned out to be 2207. The “Signal (peptides that bind to 23K21 and 8I10)” value with HuM2e antibody 23K12 is reported as 810.
In the case of “616 (SLLTEVETPIRNPWGCRCNDSSD; epitope peptide) [compound 616]”, in test [1], the “Signal (peptides that show specific binding to Z3G1)” value was 2288. For the same substance, the “Signal (peptides that bind to 23K21 and 8I10)” value in the test on HuM2e antibody 23K12 is listed as 808.
For “617 (SLLTEVETPIRNSWGCRCNDSSD; epitope peptide) [compound 617]”, in that order: 2300 and 807.
On to “618 (SLLTEVETPIRNEWGCRCLDSSD; epitope peptide) [compound 618]”, for which, in test [1], the “Signal (peptides that bind to Z3G1)” value is given as 2480. For the same substance, the “Signal (peptides that bind to 23K21 and 8I10)” value in the test on HuM2e antibody 23K12 is reported as 807.
Regarding “619 (SLLTEVETPIRNEWGCRCNASSD; epitope peptide) [compound 619]”, the “Signal (peptides that bind to Z3G1)” value in test [1] was found to be 2454. For the same substance, in the test on HuM2e antibody 23K12, the “Signal (peptides that bind to 23K21 and 8I10)” value is reported as 807.
In the case of “620 (SLLTEVETPIRFEWGCRCNDSSD; epitope peptide) [compound 620]”, the “Signal (peptides that show specific binding to Z3G1)” value in test [1] is 2364. Besides, the “Signal (peptides that bind to 23K21 and 8I10)” value in the test with HuM2e antibody 23K12 is 806.
With “621 (SLLTEVEFPIRNEWGCRCNDSSD; epitope peptide) [compound 621]”, the “Signal (peptides that show specific binding to Z3G1)” value in test [1] is listed as 2297. Also, in the test on HuM2e antibody 23K12, the “Signal (peptides that bind to 23K21 and 8I10)” value came to 805.
As for “622 (SLLTEVETPIRMEWGCRCNDSSD; epitope peptide) [compound 622]”, the “Signal (peptides that show specific binding to Z3G1)” value in test [1] is recorded as 2385. In addition, the “Signal (peptides that bind to 23K21 and 8I10)” value in the test on HuM2e antibody 23K12 worked out at 805.
For “623 (SLLTEVETCIRNEWGCRCNDSSD; epitope peptide) [compound 623]”, in that order: 1992 and 800.
Turning to “626 (SLLTEVETPIRNEWGCRCYDSSD; epitope peptide) [compound 626]”, the “Signal (peptides that bind to Z3G1)” value in test [1] stood at 2385. In addition, the “Signal (peptides that bind to 23K21 and 8I10)” value with HuM2e antibody 23K12 is 791.
With “627 (SLLTEVETPIRIEWGCRCNDSSD; epitope peptide) [compound 627]”, in test [1], the “Signal (peptides that show specific binding to Z3G1)” value is 2444. Also, in the test with HuM2e antibody 23K12, the “Signal (peptides that bind to 23K21 and 8I10)” value was found to be 789.
Take “628 (SLLTEVETPIRNEWGCRCMDSSD; epitope peptide) [compound 628]”: in test [1], the “Signal (peptides that bind to Z3G1)” value turned out to be 2470. For the same substance, the “Signal (peptides that bind to 23K21 and 8I10)” value in the test on HuM2e antibody 23K12 is 786.
On to “629 (SLLTEVMTPIRNEWGCRCNDSSD; epitope peptide) [compound 629]”, for which the “Signal (peptides that show specific binding to Z3G1)” value in test [1] worked out at 2331. Besides, in the test on HuM2e antibody 23K12, the “Signal (peptides that bind to 23K21 and 8I10)” value is 783.
For “631 (SLLTEVETPIRKEWGCRCNDSSD; epitope peptide) [compound 631]”, in that order: 2437 and 782.
Regarding “632 (SLLTEVETPIRNEWGCRCVDSSD; epitope peptide) [compound 632]”, in test [1], the “Signal (peptides that bind to Z3G1)” value stood at 2366. Besides, the “Signal (peptides that bind to 23K21 and 8I10)” value with HuM2e antibody 23K12 is 775.
As for “635 (SLLTEVEAPIRNEWGCRCNDSSD; epitope peptide) [compound 635]”, the “Signal (peptides that show specific binding to Z3G1)” value in test [1] stood at 2325. For the same substance, the “Signal (peptides that bind to 23K21 and 8I10)” value in the test with HuM2e antibody 23K12 is on record as 769.
On to “636 (SLLTEVETPIRNEIGCRCNDSSD; epitope peptide) [compound 636]”, for which the “Signal (peptides that show specific binding to Z3G1)” value in test [1] is 2402. For the same substance, the “Signal (peptides that bind to 23K21 and 8I10)” value in the test with HuM2e antibody 23K12 was determined as 768.
For “637 (SLLTEVETPIRNENGCRCNDSSD; epitope peptide) [compound 637]”, in that order: 2265 and 768.
Regarding “638 (SLLTEVETPIRNEWGTRCNDSSD; epitope peptide) [compound 638]”, in test [1], the “Signal (peptides that show specific binding to Z3G1)” value is 2404. In the test with HuM2e antibody 23K12, the “Signal (peptides that bind to 23K21 and 8I10)” value is 767.
For “639 (SLLTEVETPIRNEWGCFCNDSSD; epitope peptide) [compound 639]”, in that order: 2312 and 767.
On to “640 (SLLTEVETPIRNKWGCRCNDSSD; epitope peptide) [compound 640]”, for which the “Signal (peptides that show specific binding to Z3G1)” value in test [1] amounted to 2402. Also, in the test with HuM2e antibody 23K12, the “Signal (peptides that bind to 23K21 and 8I10)” value is given as 765.
Regarding “641 (SLLTEVETPIRNELGCRCNDSSD; epitope peptide) [compound 641]”, the “Signal (peptides that show specific binding to Z3G1)” value in test [1] came out at 2436. Also, in the test with HuM2e antibody 23K12, the “Signal (peptides that bind to 23K21 and 8I10)” value turned out to be 765.
For “644 (SLLTEVETPIRNEWGVRCNDSSD; epitope peptide) [compound 644]”, in that order: 2444 and 764.
Take “645 (SLLTEVVTPIRNEWGCRCNDSSD; epitope peptide) [compound 645]”: the “Signal (peptides that show specific binding to Z3G1)” value in test [1] is on record as 1492. Also, in the test on HuM2e antibody 23K12, the “Signal (peptides that bind to 23K21 and 8I10)” value is recorded as 763.
Consider “646 (SLLTEVEGPIRNEWGCRCNDSSD; epitope peptide) [compound 646]”, for which, in test [1], the “Signal (peptides that show specific binding to Z3G1)” value is recorded as 2341. In the test on HuM2e antibody 23K12, the “Signal (peptides that bind to 23K21 and 8I10)” value is on record as 763.
As to “647 (SLLTEVETPIRNEWGHRCNDSSD; epitope peptide) [compound 647]”, the “Signal (peptides that show specific binding to Z3G1)” value in test [1] is recorded as 2113. For the same substance, the “Signal (peptides that bind to 23K21 and 8I10)” value in the test with HuM2e antibody 23K12 was 763.
“648 (SLLTEVETPIRNEWGKRCNDSSD; epitope peptide) [compound 648]”: the “Signal (peptides that show specific binding to Z3G1)” value in test [1] was determined as 2295. The “Signal (peptides that bind to 23K21 and 8I10)” value in the test on HuM2e antibody 23K12 is given as 762.
“649 (SLLTEVETTIRNEWGCRCNDSSD; epitope peptide) [compound 649]”: the “Signal (peptides that show specific binding to Z3G1)” value in test [1] is reported as 2295. Besides, the “Signal (peptides that bind to 23K21 and 8I10)” value in the test with HuM2e antibody 23K12 was found to be 760.
